The source made the active and inactive calls. The rule behind the calls is not given here.

Consider 14 compounds from ChEMBL document CHEMBL3627604, “Design of novel 3,6-diazabicyclo[3.1.1]heptane derivatives with potent and selective affinities for α4β2 neuronal nicotinic acetylcholine receptors” (Eur J Med Chem, 2015).

The target of test [1] is Neuronal acetylcholine receptor subunit alpha-7 (Rattus norvegicus, UniProt Q05941). The test can be described thus: Displacement of [125I]alpha-Bungarotoxin from alpha7 nAChR in Sprague-Dawley rat hippocampal membranes pre-incubated for 5 mins followed by overnight incubation by radioligand liquid scintillation counter analysis.
Chain of Neuronal acetylcholine receptor subunit alpha-7 (Q05941 whole entry): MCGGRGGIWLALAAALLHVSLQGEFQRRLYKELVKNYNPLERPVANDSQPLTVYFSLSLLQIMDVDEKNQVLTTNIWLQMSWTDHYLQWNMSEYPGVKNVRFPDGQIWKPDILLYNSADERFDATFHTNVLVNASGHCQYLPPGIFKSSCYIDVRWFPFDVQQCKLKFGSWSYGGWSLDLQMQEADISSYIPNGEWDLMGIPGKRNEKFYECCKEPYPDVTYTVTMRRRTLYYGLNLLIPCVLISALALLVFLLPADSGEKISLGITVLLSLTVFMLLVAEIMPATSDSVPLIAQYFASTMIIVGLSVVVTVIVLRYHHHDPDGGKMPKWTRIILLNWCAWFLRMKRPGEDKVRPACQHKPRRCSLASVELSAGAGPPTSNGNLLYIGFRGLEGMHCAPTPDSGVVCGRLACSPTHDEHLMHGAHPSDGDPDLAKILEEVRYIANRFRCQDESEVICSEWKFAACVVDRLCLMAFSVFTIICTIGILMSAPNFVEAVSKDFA
The species entered for test [2] is Rattus norvegicus. Description: Selectivity ratio of Ki for alpha7 nAChR in Sprague-Dawley rat hippocampal membranes to Ki for alpha4beta2 nAChR in Sprague-Dawley rat cortical membranes.
The nature of test [3]: Displacement of [3H]-Epibatidine from alpha4beta2* nAChR in Sprague-Dawley rat cortical membranes pre-incubated for 5 mins followed by overnight incubation by radioligand liquid scintillation counter analysis.
The nature of test [4]: Binding affinity to alpha4beta2* nAChR in Sprague-Dawley rat cortical membranes after overnight incubation by radioligand liquid scintillation counter analysis.
The test system of test [5] is HEK293. Description: Selectivity ratio of Ki for aplha6beta2* nAChR in Sprague-Dawley rat cortical membranes to Ki for human aplha3beta4 nAChR expressed in HEK293 cells. The class given is cell-based.
Test [6] addresses Neuronal acetylcholine receptor; alpha4/beta2 (Rattus norvegicus, UniProt P09483+P12390). The test can be described thus: Agonist activity at alpha4beta2 nAChR in Sprague-Dawley rat striatal slices assessed as increase in [3H]-Dopamine release after 5 mins by microbeta counting. The class given is protein-complex assay.
Test [7] is described as follows: Displacement of [3H]-Epibatidine from aplha6beta2* nAChR in Sprague-Dawley rat cortical membranes pre-incubated for 5 mins followed by overnight incubation by radioligand liquid scintillation counter analysis.
Test [8] concerns the target Neuronal acetylcholine receptor; alpha3/beta4 (Homo sapiens, UniProt P30926+P32297). Description: Displacement of [3H]-Epibatidine from human aplha3beta4 nAChR expressed in HEK293 cells pre-incubated for 5 mins followed by overnight incubation by radioligand liquid scintillation counter analysis. The format is cell-based.
The target of test [9] is Neuronal acetylcholine receptor; alpha4/beta2 (Rattus norvegicus) (UniProt P09483+P12390). The test can be described thus: Agonist activity at alpha4beta2 nAChR in Sprague-Dawley rat striatal slices assessed as increase in [3H]-dopamine release after 5 mins by microbeta counting relative to nicotine. The class given is protein-complex assay.
Test [10] is filed under the species Rattus norvegicus. The test can be described thus: Agonist activity at aplha6beta2* nAChR in Sprague-Dawley rat striatal slices assessed as stinulation of [3H]-dopamine release in presence of 100 nM alpha-conotoxin MII after 5 mins by microbeta counting.
The nature of test [11]: Antagonist activity against alpha6beta2* nAChR in Sprague-Dawley rat […] assessed as inhibition of nicotine-induced [3H]-dopamine release after 5 mins by microbeta counting.

Chain of Neuronal acetylcholine receptor; alpha3/beta4 (P30926 whole entry): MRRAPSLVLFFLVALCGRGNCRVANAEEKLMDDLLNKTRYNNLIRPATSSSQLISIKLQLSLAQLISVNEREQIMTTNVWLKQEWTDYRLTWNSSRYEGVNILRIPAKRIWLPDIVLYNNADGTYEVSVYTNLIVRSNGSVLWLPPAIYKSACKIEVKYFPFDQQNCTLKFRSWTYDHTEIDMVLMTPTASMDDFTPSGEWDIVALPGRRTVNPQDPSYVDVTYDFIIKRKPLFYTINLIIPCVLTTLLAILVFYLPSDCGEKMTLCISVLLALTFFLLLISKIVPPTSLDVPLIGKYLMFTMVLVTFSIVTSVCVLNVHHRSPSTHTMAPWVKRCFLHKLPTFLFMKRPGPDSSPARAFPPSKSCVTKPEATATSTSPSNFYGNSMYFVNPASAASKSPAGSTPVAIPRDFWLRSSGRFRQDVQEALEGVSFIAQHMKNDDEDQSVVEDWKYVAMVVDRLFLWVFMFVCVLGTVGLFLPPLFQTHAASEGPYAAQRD
Chain of Neuronal acetylcholine receptor; alpha3/beta4 (P32297 whole entry): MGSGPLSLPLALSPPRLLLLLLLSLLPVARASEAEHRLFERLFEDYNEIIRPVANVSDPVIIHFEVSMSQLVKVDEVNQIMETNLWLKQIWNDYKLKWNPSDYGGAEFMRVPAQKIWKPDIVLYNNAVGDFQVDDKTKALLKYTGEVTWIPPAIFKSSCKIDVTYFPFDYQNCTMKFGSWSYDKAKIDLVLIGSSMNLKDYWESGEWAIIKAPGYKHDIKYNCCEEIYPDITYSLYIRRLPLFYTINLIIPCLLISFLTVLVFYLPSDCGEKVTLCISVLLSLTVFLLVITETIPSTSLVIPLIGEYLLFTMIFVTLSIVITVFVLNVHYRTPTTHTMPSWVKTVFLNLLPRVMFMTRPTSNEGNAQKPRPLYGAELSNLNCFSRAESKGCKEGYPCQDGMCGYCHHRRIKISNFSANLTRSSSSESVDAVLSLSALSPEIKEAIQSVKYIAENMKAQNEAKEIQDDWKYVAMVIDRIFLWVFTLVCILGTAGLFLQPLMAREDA
Chain of Neuronal acetylcholine receptor; alpha4/beta2 (P09483 whole entry): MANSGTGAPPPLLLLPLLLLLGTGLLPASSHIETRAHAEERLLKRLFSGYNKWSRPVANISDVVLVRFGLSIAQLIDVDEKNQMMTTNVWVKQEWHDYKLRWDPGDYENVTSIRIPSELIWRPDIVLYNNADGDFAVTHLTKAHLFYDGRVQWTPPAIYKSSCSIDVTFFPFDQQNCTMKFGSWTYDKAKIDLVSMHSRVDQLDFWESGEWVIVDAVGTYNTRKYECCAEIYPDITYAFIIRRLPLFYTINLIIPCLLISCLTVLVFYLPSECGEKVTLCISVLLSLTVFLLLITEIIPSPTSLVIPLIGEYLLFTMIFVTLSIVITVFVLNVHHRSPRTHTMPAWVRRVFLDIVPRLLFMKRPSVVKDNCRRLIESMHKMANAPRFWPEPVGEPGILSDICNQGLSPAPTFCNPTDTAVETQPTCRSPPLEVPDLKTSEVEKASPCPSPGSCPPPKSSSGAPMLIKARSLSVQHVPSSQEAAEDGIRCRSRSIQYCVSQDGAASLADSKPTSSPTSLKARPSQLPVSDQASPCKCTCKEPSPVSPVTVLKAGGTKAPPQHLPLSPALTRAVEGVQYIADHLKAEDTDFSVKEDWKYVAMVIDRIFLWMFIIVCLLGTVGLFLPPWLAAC
Chain of Neuronal acetylcholine receptor; alpha4/beta2 (P12390 whole entry): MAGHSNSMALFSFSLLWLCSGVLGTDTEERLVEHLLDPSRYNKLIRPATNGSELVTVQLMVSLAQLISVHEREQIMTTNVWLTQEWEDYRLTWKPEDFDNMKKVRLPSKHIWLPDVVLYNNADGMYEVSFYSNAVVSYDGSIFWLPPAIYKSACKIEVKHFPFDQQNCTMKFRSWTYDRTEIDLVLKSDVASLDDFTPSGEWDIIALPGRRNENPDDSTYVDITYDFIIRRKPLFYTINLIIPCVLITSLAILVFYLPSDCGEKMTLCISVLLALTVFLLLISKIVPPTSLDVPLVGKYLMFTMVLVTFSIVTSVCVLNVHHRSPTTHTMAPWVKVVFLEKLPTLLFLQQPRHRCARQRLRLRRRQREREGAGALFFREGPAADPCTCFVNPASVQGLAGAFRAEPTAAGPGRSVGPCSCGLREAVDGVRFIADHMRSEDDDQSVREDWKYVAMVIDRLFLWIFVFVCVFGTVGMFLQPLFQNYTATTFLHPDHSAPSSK

`Clc1ccc(Cl)c(-c2cncc(N3CC4CC(C3)N4)c2)c1`: the Ki in test [1] came to 6000 nM; in test [3] it was 0.0667 nM. Also, the Ratio Ki in [2] was 90000.
In [4], `Clc1ccc([C@@H]2C[C@H]3CC[C@@H]2N3)cn1` [(+)-EPIBATIDINE] yielded a Ki of 0.043 nM.
As to `Clc1ccc(-c2cncc(N3CC4CC(C3)N4)c2)cc1`, the inhibition constant Ki in [1] worked out at 48000 nM; in test [3], 0.0328 nM. Further, in test [2], the Ratio Ki is 1.46e+06.
`Cc1ccc(-c2cncc(N3CC4CC(C3)N4)c2)cc1`: the Ki in [1] came to 96000 nM; in test [3], 0.0143 nM. For the same compound, the Ratio Ki in test [2] worked out at 6.69e+06.
`Clc1cncc(N2CC3CC(C2)N3)c1`: the Ratio Ki in test [5] came out at 411; in test [2], 11600. Further, the Ki in [1] is 73 nM; in test [7], 0.0112 nM; in test [3], 0.00632 nM; in [8], 2.6 nM. Also, the EC50 in [6] (read-out: EC50) was determined as 1.4 nM. Besides, the Efficacy in test [9] was 111%. In test [10], the outcome was inactive.
Take `Clc1ccc(-c2cncc(N3CC4CC(C3)N4)c2)cc1Cl`: the Ki in [1] was determined as 36000 nM; in test [3], 0.0908 nM. For the same compound, in [2], the Ratio Ki stood at 397000.
For `Clc1ccc(-c2cncc(N3CC4CC(C3)N4)c2)c(Cl)c1`, the inhibition constant Ki worked out at 13000 nM in test [1] and 0.0821 nM in [3].
As for `COc1ccc(-c2cncc(N3CC4CC(C3)N4)c2)cc1`, the Ki came to 6500 nM in [1] and 0.0121 nM in test [3]. Also, the Ratio Ki in test [2] stood at 537000.
Turning to `Brc1ccc(-c2cncc(N3CC4CC(C3)N4)c2)cc1`, the inhibition constant (Ki) in test [1] came to 34000 nM; in test [3], 0.151 nM. The Ratio Ki in test [2] was 226000.
On the same counts, the results for `Brc1cncc(N2CC3CC(C2)N3)c1` are 176 nM, 0.00572 nM and 30800.
On the same counts, the results for `O=[N+]([O-])c1ccc(-c2cncc(N3CC4CC(C3)N4)c2)cc1` are 5000 nM, 0.0105 nM and 478000.
In the case of `Fc1ccc(-c2cncc(N3CC4CC(C3)N4)c2)cc1`, the inhibition constant (Ki) in test [1] was 110000 nM; in [7], 0.032 nM; in test [3], 0.0248 nM; in test [8], 1.6 nM. Besides, the concentration for a half-maximal effect (EC50) result in test [6] was “Not Active”. Besides, in test [2], the Ratio Ki is 4.44e+06. In test [11], the 50% inhibitory concentration (IC50) came out at 0.7 nM.
`Clc1ccc(N2CC3CC(C2)N3)cn1`: in test [6] (read-out: EC50), the EC50 was determined as 1.16 nM. For the same compound, the values for the Ki in test [7] and in test [8] were 0.0048 nM and 0.2 nM, respectively. For the same compound, the Efficacy in test [9] was 120%. The outcome in test [10] was inactive.
Regarding `c1ccc(-c2cncc(N3CC4CC(C3)N4)c2)cc1`, the values for the Ratio Ki in [5] and in test [2] were 521 and 1.52e+06, respectively. Besides, the Ki amounted to 17000 nM in [1], 0.0112 nM in test [7], 0.0112 nM in [3] and 6.1 nM in test [8]. For the same compound, in test [6], the half-maximal effective concentration (EC50) entry is “Not Active”. In addition, in test [11], the half-maximal inhibitory concentration (IC50) turned out to be 5.87 nM.
